Results published in patent publication US6706703B2, “Bis(5-aryl-2-pyridyl) derivatives” (Kowa Co., Ltd., priority 2001, dated 2004).
Counter-ions that a name gives are not always drawn. Marks after values point to notes of the source that are not given here.

Tests used:
[1] = test system: IgE antibody production; assay: Evaluation of IgE antibody production inhibiting activity (B cells + LPS + mouse IL-4, IgE in culture supernatant by ELISA); type: cell-based; settings: B-cell, mouse (Balb/C) spleen B cells, LPS 1 day then mouse IL-4 6 days
Protocol: Test 1 (Evaluation of IgE Antibody Production Inhibiting Activity)
From a mouse (Balb/C, male, 8 weeks old), the spleen was enucleated. The spleen was shredded in 10% FEB/RPMI 1640, and was then disintegrated into single cells through a 70-mesh screen. Those single cells were hemolyzed with Gey's solution, and using RPMI 1640 medium/25 mM HEPES/0.3% BSA, a spleen cell suspension (1×10^7 cells/mL) was prepared. After an aliquot of the suspension was reacted with a rat anti-mouse Thy-1.2 monoclonal antibody (product of Cedarlane Laboratories Limited) at 4° C. for 1 hour, centrifugation was conducted. Precipitated cells were suspended again (1×10^7 cells/mL, RPMI/HEPES/BSA). After the suspension was next reacted with a low-cytotoxic rabbit complement (product of Cedarlane Laboratories Limited) at 37° C. for 1 hour, dead cells were removed by specific gravity centrifugation using Lympholyte M (product of Cedarlane Laboratories Limited) so that a B cell fraction was obtained as viable cells.
Using a 96-well plate, the B cells (2×10^5 cells/0.2 mL/well) were incubated together with LPS (E. coli 026:B6, product of DIFCO Laboratories, Inc.) for 1 day. Mouse IL-4 (product of Genzyme Corp.) was then added, followed by further incubation for 6 days.
The IgE antibody production inhibiting activity of each drug was calculated by adding the drug Day 1 of the incubation and assaying the quantity of IgE in the culture supernatant by ELISA after the incubation.

[2] = Solubility of each compound in water; type: physicochemical
Excerpt: Further, the solubility (%) of each compound in water was also estimated.

[3] = solubility in 0.1M hydrochloric acid (footnote *)

IC50 [1] [nM] | Water solubility ([2]; in water) [%] | Water solubility [2, 3] | SMILES
300 | 5 | – | COc1cc(-c2ccc(N3CCCN(c4ccc(-c5cc(OC)c(N)c(OC)c5)cn4)CC3)nc2)cc(OC)c1N [Example 34, 1,4-Bis[5-(4-amino-3,5-dimethoxyphenyl)-2-pyridyl]hexahydro-1,4-diazepine Tetrahydrochloride]
200 | 5 | – | COc1cc(-c2ccc(N3CCCN(c4ccc(-c5cc(OC)c(OC)c(OC)c5)cn4)CC3)nc2)cc(OC)c1OC [Example 26, 1,4-Bis[5-(3,4,5-trimethoxyphenyl)-2-pyridyl]hexahydro-1,4-diazepine Dimethanesulfonate]
100 | – | 5* % | COc1cc(-c2ccc(N3CCN(CCCN4CCN(c5ccc(-c6cc(OC)c(OC)c(OC)c6)cn5)CC4)CC3)nc2)cc(OC)c1OC [Example 57, 1,3-Bis[4-[5-(3,4,5-trimethoxyphenyl)-2-pyridyl]-1-piperazinyl]propane]
200 | 5 | – | COc1cc(-c2ccc(N(C)CCN(C)c3ccc(-c4cc(OC)c(OC)c(OC)c4)cn3)nc2)cc(OC)c1OC [Example 58, N,N′-Bis[5-(3,4,5-trimethoxyphenyl)-2-pyridyl]-N,N′-dimethylethylenediamine Dimethanesulfonate]
200 | – | 5* % | COc1cc(-c2ccc(N3CCCN(c4ccc(-c5cc(OC)c(N(C)C)c(OC)c5)cn4)CC3)nc2)cc(OC)c1N(C)C [Example 35, 1,4-Bis[5-(4-dimethylamino-3,5-dimethoxyphenyl)-2-pyridyl]hexahydro-1,4-diazepine]
